From patent publication US8865230B2, “Compositions and methods for treating parasitic infections” (TyraTech, Inc., priority 2006, dated 2014)

What follows are compounds tested on Hymenolepis nana (assay: H. nana in vivo, infected mice treated orally with single test agents Rx (Example 1)). Details: 400 mg/kg orally daily for 5 days.
With `CC12CCC(CC1)C(C)(C)O2` [Rx 6, cineol] the “Egg Count (X ± SD), During Treatment 1st Day” value was 5 ± 9.5 and the “Egg Count (X ± SD), During Treatment 3rd Day” value was 1 ± 1.2. For `CC(C)=CCC/C(C)=C/CO` [Rx 5, geraniol], the “Egg Count (X ± SD), During Treatment 1st Day” value was 14 ± 13.9. With `Cc1ccc(C(C)C)cc1O` [Rx 4, carvacrol] the “Egg Count (X ± SD), During Treatment 1st Day” value was 5 ± 0.6 and the “Egg Count (X ± SD), During Treatment 3rd Day” value was 1 ± 1.9.

What follows are compounds tested against T1, Tyramine receptor (TyrR) (Drosophila melanogaster, UniProt P22270) (assay: Tyramine receptor binding affinity in cells expressing TyrR (Example 14)). Details: not given.
T1 construct: expressed in transfected cells
T1 sequence (P22270 27-601): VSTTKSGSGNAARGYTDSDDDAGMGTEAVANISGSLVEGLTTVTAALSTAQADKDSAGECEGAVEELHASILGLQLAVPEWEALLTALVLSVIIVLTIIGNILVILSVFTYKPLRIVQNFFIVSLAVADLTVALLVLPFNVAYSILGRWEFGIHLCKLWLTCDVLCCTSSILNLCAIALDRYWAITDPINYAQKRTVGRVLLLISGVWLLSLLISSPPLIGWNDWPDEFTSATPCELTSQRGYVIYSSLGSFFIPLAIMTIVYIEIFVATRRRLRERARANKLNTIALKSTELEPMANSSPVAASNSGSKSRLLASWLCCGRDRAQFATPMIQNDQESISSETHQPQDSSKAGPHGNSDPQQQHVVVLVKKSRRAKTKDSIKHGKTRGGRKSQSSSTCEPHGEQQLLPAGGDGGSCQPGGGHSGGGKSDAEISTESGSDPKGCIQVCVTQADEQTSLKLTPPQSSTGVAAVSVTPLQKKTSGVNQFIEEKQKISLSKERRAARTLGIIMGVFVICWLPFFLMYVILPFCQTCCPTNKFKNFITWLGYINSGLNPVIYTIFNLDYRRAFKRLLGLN
In the case of `CC=Cc1ccc(OC)cc1` [anethole], the “Tyramine Receptor Binding Affinity (High or Low)” value is reported as “Low”. In the case of `C=CC(C)(O)CCC=C(C)C` (stereo not shown) [linalool], the “Tyramine Receptor Binding Affinity (High or Low)” value is reported as “high”. For `Cc1ccc(C(C)C)cc1` [p-cymene], the “Tyramine Receptor Binding Affinity (High or Low)” value was “low”. In the case of `Cc1ccc(C(C)C)c(O)c1` [thymol], the “Tyramine Receptor Binding Affinity (High or Low)” value is reported as “high”.

What follows are compounds tested against T1, Tyramine receptor (TyrR) (assay: Effect on intracellular Ca2+ in cells expressing TyrR (Example 14)). Details: not given.
Format: cell-based
With `CC1=CCC2CC1C2(C)C` (stereo not drawn) [α-pinene] the “Effects Intracellular Ca2+ (Yes or No)” value was “No”. In the case of `CCC(C)(O)CCCC(C)C` (stereo not shown) [tetrahydrolinalool], the “Effects Intracellular Ca2+ (Yes or No)” value is reported as “Yes”. For `OCC=Cc1ccccc1` [cinnamyl alcohol], the “Effects Intracellular Ca2+ (Yes or No)” value was “Yes”. With `CC=Cc1ccc(OC)cc1` [anethole] the “Effects Intracellular Ca2+ (Yes or No)” value was “Yes”. In the case of `OCc1ccccc1` [benzyl alcohol], the “Effects Intracellular Ca2+ (Yes or No)” value is reported as “No”. For `C=C(C)[C@H]1CC=C(C)CC1` [d-limonene], the “Effects Intracellular Ca2+ (Yes or No)” value was “Yes”. For `C=CC(C)(O)CCC=C(C)C` (stereo not shown) [linalool], the “Effects Intracellular Ca2+ (Yes or No)” value was “Yes”. `CC12CCC(CC1)C(C)(C)O2` [Rx 6, cineol] was tested, and the “Effects Intracellular Ca2+ (Yes or No)” value was “Yes”. With `CCC(=O)OCCc1ccccc1` [phenethyl proprionate] the “Effects Intracellular Ca2+ (Yes or No)” value was “No”. With `Cc1ccc(C(C)C)cc1` [p-cymene] the “Effects Intracellular Ca2+ (Yes or No)” value was “Yes”. For `CCCCCCCCCCCCOS(=O)(=O)[O-].[Na+]` [sodium lauryl sulfate], the “Effects Intracellular Ca2+ (Yes or No)” value was “No”. In the case of `CC(C)=CCC/C(C)=C/CO` [Rx 5, geraniol], the “Effects Intracellular Ca2+ (Yes or No)” value is reported as “Yes”. With `C=CCc1ccc(O)c(OC)c1` [Eugenol] the “Effects Intracellular Ca2+ (Yes or No)” value was “Yes”. With `Cc1ccc(C(C)C)c(O)c1` [thymol] the “Effects Intracellular Ca2+ (Yes or No)” value was “Yes”.

What follows are compounds tested against T1, Tyramine receptor (TyrR) (assay: Effect on intracellular cAMP in cells expressing TyrR (Example 14)). Details: not given.
Format: cell-based
With `CC1=CCC2CC1C2(C)C` (stereo not drawn) [α-pinene] the “Effects Intracellular cAMP (Yes or No)” value was “No”. With `CCC(C)(O)CCCC(C)C` (stereo not shown) [tetrahydrolinalool] the “Effects Intracellular cAMP (Yes or No)” value was “Yes”. In the case of `OCC=Cc1ccccc1` [cinnamyl alcohol], the “Effects Intracellular cAMP (Yes or No)” value is reported as “No”. For `CC=Cc1ccc(OC)cc1` [anethole], the “Effects Intracellular cAMP (Yes or No)” value was “Yes”. With `OCc1ccccc1` [benzyl alcohol] the “Effects Intracellular cAMP (Yes or No)” value was “Yes”. For `C=C(C)[C@H]1CC=C(C)CC1` [d-limonene], the “Effects Intracellular cAMP (Yes or No)” value was “Yes and No”. With `C=CC(C)(O)CCC=C(C)C` (stereo not shown) [linalool] the “Effects Intracellular cAMP (Yes or No)” value was “No”. `CC12CCC(CC1)C(C)(C)O2` [Rx 6, cineol] was tested, and the “Effects Intracellular cAMP (Yes or No)” value was “Yes”. In the case of `CCC(=O)OCCc1ccccc1` [phenethyl proprionate], the “Effects Intracellular cAMP (Yes or No)” value is reported as “Yes”. With `Cc1ccc(C(C)C)cc1` [p-cymene] the “Effects Intracellular cAMP (Yes or No)” value was “Yes”. `CCCCCCCCCCCCOS(=O)(=O)[O-].[Na+]` [sodium lauryl sulfate] was tested, and the “Effects Intracellular cAMP (Yes or No)” value was “No”. `CC(C)=CCC/C(C)=C/CO` [Rx 5, geraniol] was tested, and the “Effects Intracellular cAMP (Yes or No)” value was “Yes”. In the case of `C=CCc1ccc(O)c(OC)c1` [Eugenol], the “Effects Intracellular cAMP (Yes or No)” value is reported as “No”. `Cc1ccc(C(C)C)c(O)c1` [thymol] was tested, and the “Effects Intracellular cAMP (Yes or No)” value was “No”.
